{
  "source": "patent US20160326142A1",
  "about": "“PYRAZOLE CARBOXAMIDE COMPOUNDS, COMPOSITIONS AND METHODS OF USE” (Genentech, Inc., priority 2012, published 2016)",
  "note": "pKi: −log10 of the molar value.",
  "data": [
    {"biological_target": "T1, ITK (Homo sapiens, UniProt Q08881)", "T1 construct": "purchased Invitrogen PV3875", "T1 sequence (Q08881 1-620)": "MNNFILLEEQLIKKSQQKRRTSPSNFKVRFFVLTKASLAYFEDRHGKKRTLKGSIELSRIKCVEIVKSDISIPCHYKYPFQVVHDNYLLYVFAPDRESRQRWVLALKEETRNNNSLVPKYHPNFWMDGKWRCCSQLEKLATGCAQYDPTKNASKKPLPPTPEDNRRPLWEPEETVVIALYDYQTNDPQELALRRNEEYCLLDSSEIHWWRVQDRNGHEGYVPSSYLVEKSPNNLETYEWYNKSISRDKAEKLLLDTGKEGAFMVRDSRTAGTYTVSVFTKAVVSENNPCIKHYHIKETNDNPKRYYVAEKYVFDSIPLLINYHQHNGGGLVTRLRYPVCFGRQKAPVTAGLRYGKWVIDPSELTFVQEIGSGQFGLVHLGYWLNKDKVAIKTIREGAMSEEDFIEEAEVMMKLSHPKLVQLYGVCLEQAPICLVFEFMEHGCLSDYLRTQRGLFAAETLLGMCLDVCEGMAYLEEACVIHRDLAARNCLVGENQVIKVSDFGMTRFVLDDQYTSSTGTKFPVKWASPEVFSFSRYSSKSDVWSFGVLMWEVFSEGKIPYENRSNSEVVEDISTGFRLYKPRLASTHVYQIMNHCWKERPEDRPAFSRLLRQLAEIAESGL", "experiment": "ITK enzyme assay (Caliper or LCMS peptide phosphorylation)", "format": "biochemical", "settings": "purified ITK (Invitrogen PV3875), 20 μM ATP, Ki by Morrison's quadratic equation", "in_short": "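Purified human ITK peptide phosphorylation, quenched with EDTA (50 mM final) for Caliper LabChip separation or TCA (5% v/v final) for UPLC-MS/MS MRM quantification. Ki derived via Morrison tight-binding equation, corrected for competitive inhibition using ATP concentration relative to Km,app.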", "values": [
      {"smiles": "CC1(C)CCc2c(C(=O)Nc3cnn(C(c4ccccc4)C4CCN(CCF)CC4)c3)n[nH]c2C1", "note": "(single isomer, unassigned) [Example 63a, N-(1-((1-(2-fluoroethyl)piperidin-4-yl)(phenyl)methyl)-1H-pyrazol-4-yl)-6,6-dimethyl-4,5,6,7-tetrahydro-1H-indazole-3-carboxamide]", "pKi": 10.00},
      {"smiles": "CC1(C)CCc2c(C(=O)Nc3cnn(C(c4ccccc4)C4CCN(CCF)CC4)c3)n[nH]c2C1", "note": "(single isomer, unassigned) [Example 63b, N-(1-((1-(2-fluoroethyl)piperidin-4-yl)(phenyl)methyl)-1H-pyrazol-4-yl)-6,6-dimethyl-4,5,6,7-tetrahydro-1H-indazole-3-carboxamide]", "pKi": 9.00},
      {"smiles": "CC1(C)CCc2c(C(=O)Nc3cnn(C(c4ccccc4)[C@@H]4CNCCO4)c3)n[nH]c2C1", "note": "(single isomer, unassigned) [Example 66a]", "pKi": 9.52},
      {"smiles": "CC1(C)CCc2c(C(=O)Nc3cnn(C(c4ccccc4)[C@@H]4CNCCO4)c3)n[nH]c2C1", "note": "(single isomer, unassigned) [Example 66b]", "pKi": 9.00},
      {"smiles": "CC1(C)CCc2c(C(=O)Nc3cnn(C(c4ccccc4)C4CCN(S(C)(=O)=O)CC4)c3)n[nH]c2C1", "note": "(single isomer, unassigned) [Example 67a, 6,6-dimethyl-N-(1-((1-(methylsulfonyl)piperidin-4-yl)(phenyl)methyl)-1H-pyrazol-4-yl)-4,5,6,7-tetrahydro-1H-indazole-3-carboxamide]", "pKi": 9.70},
      {"smiles": "CC1(C)CCc2c(C(=O)Nc3cnn(C(c4ccccc4)C4CCN(S(C)(=O)=O)CC4)c3)n[nH]c2C1", "note": "(single isomer, unassigned) [Example 67b, 6,6-dimethyl-N-(1-((1-(methylsulfonyl)piperidin-4-yl)(phenyl)methyl)-1H-pyrazol-4-yl)-4,5,6,7-tetrahydro-1H-indazole-3-carboxamide]", "pKi": 8.52},
      {"smiles": "CN(C)CC(c1ccccc1)n1cc(NC(=O)c2n[nH]c3c2CC2CC2(C)C3)cn1", "note": "(single isomer, unassigned) [Example 68a, N-(1-(2-(dimethylamino)-1-phenylethyl)-1H-pyrazol-4-yl)-5a-methyl-1,4,4a,5,5a,6-hexahydrocyclopropa[f]indazole-3-carboxamide]", "pKi": 9.70},
      {"smiles": "CN(C)CC(c1ccccc1)n1cc(NC(=O)c2n[nH]c3c2CC2CC2(C)C3)cn1", "note": "(single isomer, unassigned) [Example 68b, N-(1-(2-(dimethylamino)-1-phenylethyl)-1H-pyrazol-4-yl)-5a-methyl-1,4,4a,5,5a,6-hexahydrocyclopropa[f]indazole-3-carboxamide]", "pKi": 8.40},
      {"smiles": "CC1(C)Cc2[nH]nc(C(=O)Nc3cnn(Cc4ccccc4)c3)c2CC1O", "note": "(single isomer, unassigned) [Example 70a, N-(1-benzyl-1H-pyrazol-4-yl)-5-hydroxy-6,6-dimethyl-4,5,6,7-tetrahydro-1H-indazole-3-carboxamide]", "pKi": 7.96},
      {"smiles": "CC1(C)Cc2[nH]nc(C(=O)Nc3cnn(Cc4ccccc4)c3)c2CC1O", "note": "(single isomer, unassigned) [Example 70b, N-(1-benzyl-1H-pyrazol-4-yl)-5-hydroxy-6,6-dimethyl-4,5,6,7-tetrahydro-1H-indazole-3-carboxamide]", "pKi": 8.15},
      {"smiles": "CC1(C)CCc2c(C(=O)Nc3cnn(C(CS(C)(=O)=O)c4cccnc4)c3)n[nH]c2C1", "note": "(single isomer, unassigned) [Example 73a, 6,6-dimethyl-N-(1-(2-(methylsulfonyl)-1-(pyridin-3-yl)ethyl)-1H-pyrazol-4-yl)-4,5,6,7-tetrahydro-1H-indazole-3-carboxamide]", "pKi": 9.15},
      {"smiles": "CC1(C)CCc2c(C(=O)Nc3cnn(C(CS(C)(=O)=O)c4cccnc4)c3)n[nH]c2C1", "note": "(single isomer, unassigned) [Example 73b, 6,6-dimethyl-N-(1-(2-(methylsulfonyl)-1-(pyridin-3-yl)ethyl)-1H-pyrazol-4-yl)-4,5,6,7-tetrahydro-1H-indazole-3-carboxamide]", "pKi": 8.15},
      {"smiles": "CC1(C)CCc2c(C(=O)Nc3cnn(C(c4cccnc4)C4CCS(=O)(=O)CC4)c3)n[nH]c2C1", "note": "(single isomer, unassigned) [Example 74a, N-(1-((1,1-dioxidotetrahydro-2H-thiopyran-4-yl)(pyridin-3-yl)methyl)-1H-pyrazol-4-yl)-6,6-dimethyl-4,5,6,7-tetrahydro-1H-indazole-3-carboxamide]", "pKi": 9.70},
      {"smiles": "CC1(C)CCc2c(C(=O)Nc3cnn(C(c4cccnc4)C4CCS(=O)(=O)CC4)c3)n[nH]c2C1", "note": "(single isomer, unassigned) [Example 74b, N-(1-((1,1-dioxidotetrahydro-2H-thiopyran-4-yl)(pyridin-3-yl)methyl)-1H-pyrazol-4-yl)-6,6-dimethyl-4,5,6,7-tetrahydro-1H-indazole-3-carboxamide]", "pKi": 8.52},
      {"smiles": "CC1(C)CCc2c(C(=O)Nc3cnn(C(c4ccccc4)C4CN(CCF)C4)c3)n[nH]c2C1", "note": "(single isomer, unassigned) [Example 75a, N-(1-((1-(2-fluoroethyl)azetidin-3-yl)(phenyl)methyl)-1H-pyrazol-4-yl)-6,6-dimethyl-4,5,6,7-tetrahydro-1H-indazole-3-carboxamide]", "pKi": 8.70},
      {"smiles": "CC1(C)CCc2c(C(=O)Nc3cnn(C(CN4CCOCC4=O)c4ccccc4)c3)n[nH]c2C1", "note": "(single isomer, unassigned) [Example 77a, 6,6-dimethyl-N-(1-(2-(3-oxomorpholino)-1-phenylethyl)-1H-pyrazol-4-yl)-4,5,6,7-tetrahydro-1H-indazole-3-carboxamide]", "pKi": 7.70},
      {"smiles": "CC1(C)CCc2c(C(=O)Nc3cnn(C(CN4CCOCC4=O)c4ccccc4)c3)n[nH]c2C1", "note": "(single isomer, unassigned) [Example 77b, 6,6-dimethyl-N-(1-(2-(3-oxomorpholino)-1-phenylethyl)-1H-pyrazol-4-yl)-4,5,6,7-tetrahydro-1H-indazole-3-carboxamide]", "pKi": 8.70},
      {"smiles": "CC(C1CCOCC1)n1cc(NC(=O)c2n[nH]c3c2CCC(C)(C)C3)cn1", "note": "(single isomer, unassigned) [Example 78a, 6,6-dimethyl-N-(1-(1-(tetrahydro-2H-pyran-4-yl)ethyl)-1H-pyrazol-4-yl)-4,5,6,7-tetrahydro-1H-indazole-3-carboxamide]", "pKi": 7.59},
      {"smiles": "CC(C1CCOCC1)n1cc(NC(=O)c2n[nH]c3c2CCC(C)(C)C3)cn1", "note": "(single isomer, unassigned) [Example 78b, 6,6-dimethyl-N-(1-(1-(tetrahydro-2H-pyran-4-yl)ethyl)-1H-pyrazol-4-yl)-4,5,6,7-tetrahydro-1H-indazole-3-carboxamide]", "pKi": 8.22},
      {"smiles": "O=C(Nc1cnn(Cc2ccccc2)c1)c1n[nH]c2c1CC1(CCOC1)C2", "note": "(single isomer, unassigned) [Example 79a, N-(1-benzyl-1H-pyrazol-4-yl)-4,4′,5′,6-tetrahydro-1H,2′H-spiro[cyclopenta[c]pyrazole-5,3′-furan]-3-carboxamide]", "pKi": 7.34},
      {"smiles": "O=C(Nc1cnn(Cc2ccccc2)c1)c1n[nH]c2c1CC1(CCOC1)C2", "note": "(single isomer, unassigned) [Example 79b, N-(1-benzyl-1H-pyrazol-4-yl)-4,4′,5′,6-tetrahydro-1H,2′H-spiro[cyclopenta[c]pyrazole-5,3′-furan]-3-carboxamide]", "pKi": 7.02},
      {"smiles": "CC1(C)CCc2c(C(=O)Nc3cnn(C(CCC#N)c4cccnc4)c3)n[nH]c2C1", "note": "(single isomer, unassigned) [Example 80a, N-(1-(3-cyano-1-(pyridin-3-yl)propyl)-1H-pyrazol-4-yl)-6,6-dimethyl-4,5,6,7-tetrahydro-1H-indazole-3-carboxamide]", "pKi": 8.70},
      {"smiles": "CC1(C)CCc2c(C(=O)Nc3cnn(C(CCC#N)c4cccnc4)c3)n[nH]c2C1", "note": "(single isomer, unassigned) [Example 80b, N-(1-(3-cyano-1-(pyridin-3-yl)propyl)-1H-pyrazol-4-yl)-6,6-dimethyl-4,5,6,7-tetrahydro-1H-indazole-3-carboxamide]", "pKi": 8.70},
      {"smiles": "CC1(C)CCc2c(C(=O)Nc3cnn(C(CO)c4cccnc4)c3)n[nH]c2C1", "note": "(single isomer, unassigned) [Example 81a, N-(1-(2-hydroxy-1-(pyridin-3-yl)ethyl)-1H-pyrazol-4-yl)-6,6-dimethyl-4,5,6,7-tetrahydro-1H-indazole-3-carboxamide]", "pKi": 7.77},
      {"smiles": "CC1(C)CCc2c(C(=O)Nc3cnn(C(CO)c4cccnc4)c3)n[nH]c2C1", "note": "(single isomer, unassigned) [Example 81b, N-(1-(2-hydroxy-1-(pyridin-3-yl)ethyl)-1H-pyrazol-4-yl)-6,6-dimethyl-4,5,6,7-tetrahydro-1H-indazole-3-carboxamide]", "pKi": 8.52},
      {"smiles": "CC(c1cscn1)n1cc(NC(=O)c2n[nH]c3c2CCC(C)(C)C3)cn1", "note": "(single isomer, unassigned) [Example 84a, 6,6-dimethyl-N-(1-(1-(thiazol-4-yl)ethyl)-1H-pyrazol-4-yl)-4,5,6,7-tetrahydro-1H-indazole-3-carboxamide]", "pKi": 7.34}
    ]}
  ]
}
